Laboratory results published in BigSolDB 2.1.

CCCc1nc(C(C)(C)O)c(C(=O)OCC)n1Cc1ccc(-c2ccccc2-c2nnnn2C(c2ccccc2)(c2ccccc2)c2ccccc2)cc1
solubility (mole fraction)
Conditions	278.15 K	283.15 K	288.15 K	293.15 K	298.15 K	303.15 K	308.15 K	313.15 K	318.15 K
in DMAc	0.00501	0.00574	0.00655	0.00756	0.00872	0.01	0.0114	0.0129	0.0148
in DMF	0.00117	0.00148	0.00186	0.00229	0.0028	0.00337	0.004	0.00471	0.00553
in acetone	0.000617	0.000854	0.00115	0.00154	0.00197	0.00242	0.0029	0.0035	0.00417
in acetonitrile	0.00027	0.000315	0.000373	0.00044	0.000513	0.000597	0.000689	0.00079	0.000901
in cyclohexanone	0.00729	0.00844	0.00967	0.0112	0.0128	0.0147	0.0166	0.0187	0.0211
in ethanol	8.35e-05	0.000102	0.000124	0.000147	0.000174	0.000206	0.000239	0.000277	0.000318
in ethyl acetate	0.00177	0.0021	0.00256	0.00308	0.00372	0.00445	0.00523	0.00607	0.00699
in isobutanol	0.00012	0.000145	0.000177	0.000216	0.000255	0.000302	0.000352	0.000408	0.000472
in isopropanol	5.42e-05	6.87e-05	8.5e-05	0.000102	0.000122	0.000144	0.00017	0.000197	0.000228
in methanol	4.18e-05	5.35e-05	6.64e-05	8.11e-05	9.59e-05	0.000112	0.000131	0.000152	0.000175
in n-butanol	0.000177	0.000211	0.000253	0.000298	0.000348	0.000401	0.000458	0.000521	0.000588
in n-propanol	0.000144	0.000175	0.000213	0.000253	0.000298	0.000346	0.000397	0.000454	0.000519
in toluene	0.00257	0.0032	0.00403	0.00503	0.00608	0.00738	0.00882	0.0104	0.0124
